In a melting point compilation (Tetko et al.; mined from patent text by program, amines drawn as free bases though some values may be those of a salt):

| SMILES | melting point |
| --- | --- |
| O=C1CCC2(CCC(=O)N2c2ccc(Cc3ccc(N4C(=O)CCC45CCC(=O)O5)cc3)cc2)O1 (stereo not given) | 135 °C |
| Cc1cccc(-c2[nH]nc(C(F)(F)F)c2-c2ccncc2)c1 | 237 to 239 °C |
| Cc1cncc(-c2ccc3c(=O)c(C(=O)O)cn(C4CC4)c3c2C)c1 | 232 °C |
| O=C(O)Cc1cccc(OCCCNCC(c2ccccc2)c2ccccc2)c1 | 49.1 °C |
| Cc1ccc(CN2CCOCC2)cn1 | 51 to 52 °C |
| N#CN(c1ccccc1)c1nc(N(C#N)c2ccccc2)nc(N(c2ccccc2)c2ccccc2)n1 | 280 to 284 °C |
| CCN(CC)C(=O)c1cc(C(C)(C)C)ccc1-c1ccc(OC)cc1 | 89 to 92 °C |
| COC(OC)C(=O)NC(Cc1ccccc1)c1ccccc1 (stereo not given) | 108 to 110 °C |
| COC(=O)CCc1ccc(-n2ncn(-c3ccc(C(=N)NC(=O)OC)cc3)c2=O)cc1 | 296 to 298 °C |
| CN(Cc1ccc(NS(C)(=O)=O)cc1)C1CCN(c2ccc(NS(C)(=O)=O)cc2)CC1 | 177 to 179 °C |
| Brc1cc(-c2ccncc2)cnc1Br | 150 to 155 °C |
| CCCCC1(N(C)C)CCC(c2[nH]c3ccc(C(F)(F)F)cc3c2C)CC1 (stereo not given) | 141 to 146 °C |
| CCOC(=O)c1ccc(OCC(=O)c2ccc3c(c2)C(C)(C)CCC3(C)C)cc1 | 105 to 107 °C |
| Sc1nnc(-c2ccc3c(c2)CCO3)o1 | 219 to 221 °C |
| CS(=O)(=O)N(Cc1ccncc1)Cc1ccccc1F | 69 to 70 °C |
| CC[C@@H]1NC(=O)C(F)(F)[C@@H]1O | 118 to 121 °C |
| c1ccc2c(N3CCNCC3)n[nH]c2c1 | 139 to 150 °C |
| CN(Cc1ccccc1)Cc1c(-c2ccccc2)sc(N)c1C(=O)c1ccc(Cl)cc1 | 86 to 88 °C |
| CCCCOc1cc(CNCCCN2CCCCC2)cc(S(N)(=O)=O)c1Cc1ccccc1 | 98 to 101 °C |
| COc1ccc(-n2c(Br)ccc2-c2ccc(S(N)(=O)=O)cc2)cc1 | 121 to 123 °C |
| O=c1cc(-c2cccs2)oc2cccc(OCCO)c12 | 160 to 162 °C |
| S=C1NC2(CCCCC2)NC12CCCCC2 | 229 °C |
| COc1cc2c(c(OC)c1OC)C(=O)O[C@H]2CO | 178 to 180 °C |

| SMILES | melting point |
| --- | --- |
| O=C(/C=C/CC1CCN(Cc2ccccc2)CC1)c1ccc(Nc2ncnc3c2CCC3)cc1 | 184 to 185 °C |
| Cc1ccc(C2CC(C(C)(C)C)=NN2c2ccc(C(=O)O)cc2)cc1 (stereo not given) | 195 °C |
| CCN(CC)c1cncc(C(=O)Nc2nnn[nH]2)n1 | 217 to 218 °C |
| Cc1noc(NS(=O)(=O)c2ccc(Cl)c(Cl)c2Cl)c1Br | 110 to 113 °C |
| COC(=O)c1nsc(NC=O)n1 | 210 to 215 °C |
| FCc1ccc(-c2ccc(-c3cn([C@H]4CN5CCC4CC5)nn3)s2)cc1 | 199 °C |
| CS(=O)(=O)c1ccc(-c2cnn(-c3ccc(F)c(F)c3)c(=O)c2OCCC2C=CCC2)cc1 (stereo not given) | 126 to 127 °C |
| c1ccc2c(c1)C1(CO1)c1ccccc1C21CO1 (stereo not given) | 119 to 121 °C |
| Cc1oc(-c2ccccc2)nc1COc1ccc(CCn2cc(CCC(=O)O)c(-c3ccccc3)n2)cc1 | 85 to 86 °C |
| Cc1cc(O)cc(C)c1-c1cccc(CO)c1 | 175 °C |
| C=C1CC(C)(c2ccc(Nc3c4ccccc4nc4occc34)cc2)OC1=O (stereo not given) | 85 to 87 °C |
| Cc1noc(NS(=O)(=O)c2cccc(-c3ccccc3)c2)c1Cl | 84 to 86 °C |
| Cc1cccc(-c2nc(N)sc2-c2ccnc(-c3ccc(OC(F)(F)F)cc3)c2)n1 | 222 to 224 °C |
| O=C(NCc1ccc(Cl)cc1)c1cn(CCN2CCOCC2)c2ccc(C=CCO)cc2c1=O | 146 to 148 °C |
| Cc1cc(NC(N)=O)cc(C)c1NC(=O)CN1CCN(CCCC(c2ccc(F)cc2)c2ccc(F)cc2)C(C(N)=O)C1 (stereo not given) | 142 °C |
| Cn1c(-c2ccccc2)c(CCCl)sc1=S | 116 °C |
| Cc1cccc(C)c1NC(=O)NCCCc1cc(-c2ccccc2)n(-c2ccc(S(N)(=O)=O)cc2)n1 | 138 to 141 °C |
| O=C(NC(C(=O)O)C1CC(Cl)=NO1)OCC1c2ccccc2-c2ccccc21 (stereo not given) | 175 to 176 °C |
| NC(=O)c1nn(-c2ccc(S(N)(=O)=O)cc2)c2ccncc12 | 301 to 302 °C |
| N#Cc1nn(-c2c(Cl)cc(C(F)(F)F)cc2Cl)cc1C1(C(F)(F)C(F)(F)C(F)(F)F)CC1 | 95 to 96 °C |
| CNC(=O)C1(C)NCCc2c1n(F)c1ccccc21 (stereo not given) | 238 °C |
| CC(=O)OCC(CCn1cnc2c(Cl)nc(N)nc21)COC(C)=O | 135 to 137 °C |

More lines, now with the values ahead:

| melting point | SMILES |
| --- | --- |
| 69 to 72 °C | CC(C)(C)OC(=O)COCCCCCCn1nc(-c2ccccc2)c(-c2ccccc2)c1-c1ccccc1 |
| 229 to 230 °C | CCn1nc2c(N)nc3ccccc3c2c1CC(C)(C)NS(C)(=O)=O |
| 92 °C | CC(C)NCC(O)COC1c2ccccc2C(=O)N1c1ccccc1 (stereo not given) |
| 169 to 173 °C | COc1cc(N2CCOCC2)ccc1Nc1ncc2cc3ccccc3n2n1 |
| 233 to 234 °C | O=C(CN1CC(F)(F)Cn2c1nc(-c1ccncn1)cc2=O)c1ccccc1 |
| 162 °C | COC(=O)c1cc(O)c(N=Nc2ccccc2)c(OC(C)=O)c1 |
| 107 to 108 °C | COc1cc(C=O)ccc1OCc1ccc2ccccc2c1 |
| 128 to 130 °C | CCC(O)(c1ccccc1)c1ccc(C(=O)O)cc1 (stereo not given) |
| 83 to 84 °C | OCc1csc(N2CCSCC2)n1 |
| 121 to 123 °C | NN(Cc1ccccc1)C(=S)Nc1ccccc1 |
| 151 to 155 °C | COc1ccc(-n2nc(Sc3ccc(C(F)(F)F)cc3)c(C)c(C#N)c2=O)cc1 |
| 142 to 143 °C | Nc1ccc(C(F)(F)F)cc1S(N)(=O)=O |
| 161 to 162 °C | COc1ccc([C@H]2Cc3c(cccc3C(F)(F)F)NC(=O)[C@H]2OC(=O)c2ccccc2C(=O)O)cc1 (relative stereo) |
| 191 to 193 °C | COc1ccc([C@@H](CC(N)=O)N2Cc3ccccc3C2=O)cc1OC |
| 245 °C | CC1SC(=O)NN=C1c1ccc2c(c1)CC(C)(C)C(=O)N2 (stereo not given) |
| 163 to 164 °C | COC1(c2ccccc2)N=CC(=O)N(C)c2ccc([N+](=O)[O-])cc21 (stereo not given) |
| 199 °C | COc1cc(C)ccc1S(=O)(=O)NC(=O)C(c1ccc2c(c1)OCO2)c1cn(C)c2cc(C(=O)O)ccc12 (stereo not given) |
| 185 to 186 °C | COc1ccc(C(=C/C=C/C(=O)Nc2ccc(Cc3cccnc3)cc2)c2ccc(OC)cc2)cc1 |
| 171 to 172 °C | Nc1ccc(C(c2ccc(N)cc2)(c2ccc(I)cc2)C(F)(F)F)cc1 |
| 156 to 158 °C | COc1ccc(CC(NC(=O)c2ccccc2)c2cccnc2)cc1OC (stereo not given) |
| 182 to 183 °C | CC(C)(C)OC(=O)Nc1ccc(I)cc1NC(=O)CC(=O)c1cccc(C#N)c1 |
| > 200 °C | CSc1nc(NN)c(C#N)c(N2CCc3ccccc3CC2)n1 |
| 194 to 196 °C | COC(=O)c1sc2cncc(Oc3ccc(Cl)cc3)c2c1N |
| 149 °C | CC(=O)OC1CSC(Oc2cccnc2-c2ccc(F)cc2)C(OC(C)=O)C1OC(C)=O (stereo not given) |
| 223 to 224 °C | CSc1nccc(-c2c3cccnc3n3c(N)nccc23)n1 |
| 209 to 210 °C | C=Cc1cccc(C(=O)NC(Nc2c(Nc3cccnc3)c(=O)c2=O)C(C)(C)C)c1 (stereo not given) |
| < 30 °C | C#CCOCCCCCCCCCC(=O)O |
| 135 to 136 °C | COc1cc(O)c(C=O)c(-c2nc(C)no2)c1C |

| melting point | SMILES |
| --- | --- |
| 229 to 231 °C | CCc1cccc(CC)c1NC(=O)Nc1sc2cc(OC)c(OC)cc2c1-c1ccccc1Cl |
| 167 to 169 °C | Oc1ccc(C2(c3ccc(O)c(Cl)c3)CCCCCCCCCCC2)cc1Cl |
| 82 to 84 °C | COC(=O)CCCCNC(=O)c1sc2ccc(OC)cc2c1OC(C)C |
| 125 to 130 °C | O=C(Cc1cc(F)cc(F)c1)NCC(=O)N[C@@H]1C(=O)Nc2ccccc2S[C@@H]1c1ccccc1 |
| 140 °C | COC(=O)N(O)c1cccnc1Oc1ccccc1 |
| 97 to 100 °C | O=C(NC(CC1CCCC1)C(=O)NC1CCCN(C(=O)c2ccccc2)CC1=O)c1ccco1 (stereo not given) |
| 142 to 144 °C | CCN(CC)c1ccc2c(C)c(C#Cc3ccccc3)c(=O)oc2c1 |
| 88 to 90 °C | O=C(O)CCNC(=O)NCC(CS)c1ccccc1 (stereo not given) |
| 132 to 133 °C | CCOP(=O)(Cc1ccc(NC(=O)Cc2cnoc2-c2ccccc2)cc1)OCC |
| 141 to 143 °C | C=Cc1ncc2c(c1COC)c1c(OCc3ccccc3)cccc1n2S(=O)(=O)c1ccc(C)cc1 |
| 180 to 183 °C | O=C1C=C(c2ccccc2)C(=Nc2ccccc2)N1 |
| 150 to 151 °C | CC1(C)CCC(C)(C)c2cc(C(=O)SCc3ccc(C(=O)O)cc3)ccc21 |
| 184 °C | CN(C)S(=O)(=O)c1cc(-c2csc(=Nc3ccc(Cl)cc3)n2C)ccc1Cl |
| 208 to 213 °C | CNC(C(=O)O)c1ccc(Cl)cc1 (stereo not given) |
| 217 to 220 °C | CCCC(C)NC1=NS(=O)(=O)c2cc(Cl)c(Cl)cc2N1 (stereo not given) |
| 153 to 154 °C | COCCO[C@@H]1c2ccn3c(Br)c(C)nc3c2N[C@H](c2ccccc2)[C@H]1O |
| 332 to 333 °C | O=c1c(-c2ccccn2)c(O)c2cccnc2n1-c1ccccc1 |
| 110 to 112 °C | CNc1nc(-c2cccc(C=O)c2)c2cc(OC)c(OC)cc2n1 |
| 119 to 120 °C | Cc1ccc(NC(=O)Cc2ccccc2)cc1 |
| 59 to 61 °C | O=Cc1cccc(-c2ccoc2)n1 |
| 169 to 172 °C | Cc1nnc2ccc(-c3cccc(N(C)C(=O)C4CC4)c3)nn12 |
| 116 to 119 °C | CC(C)(C)NC(=O)[C@@H]1CCCN1C(=O)[C@@H](O)[C@@H](C(=O)[C@H](CC(N)=O)NCc1cnc2ccccc2n1)C(N)c1ccccc1 (stereo not given in full) |
| 118 to 119 °C | CCc1c(OC)nc(OC)nc1C(=O)c1cc(Cl)cc(Cl)c1 |
| 167 to 169 °C | CCC(=O)Nc1c(-n2cncn2)cnn1-c1c(Cl)cc(C(F)(F)F)cc1Cl |
| 97 to 125 °C | CN(C)Cc1cc(NC(=O)OC(C)(C)C)c(N)cc1-c1ccc(F)cc1 |
| 121 to 123 °C | CCOC(=O)c1cnc(C)nc1NCc1ccc(-c2ccccc2-c2nnn[nH]2)cc1 |
| 40.5 to 41 °C | COC(=O)C(C)(C)C(O)CCOc1cc(C)ccc1C (stereo not given) |
